Assays:
[1] = test system: poly (ADP-ribose) polymerase (PARP); test: Western blot of PARP cleavage in SK-N-SH cells; format: cell-based, human
Experimental: The induction of an apoptotic response in cancer cells by the addition of syringolin A was verified by monitoring the cleavage of poly (ADP-ribose) polymerase (PARP), a common response during apoptosis. SK-N-SH cells were cultured in the presence or absence of 20 μM syringolin A for 0, 24 and 48 hours, and cell lysates were then generated as described in Example 4 and probed for the presence of PARP by Western blotting using rabbit polyclonal anti-PARP (#9542) (diluted 1:1000) and the HRP-linked anti-rabbit secondary antibody described in Example 4. The results were representative of four independent experiments. […] The treatment of cells for 48 hours further increased the levels of cleaved PARP, whereas noncleaved PARP disappeared. In a similar manner, syringolin A induced PARP cleavage in SKOV3 cells, but noncleaved PARP was still detected 48 hours after treatment (FIG. 5B).
The role of glidobactin A (GlbA) in apoptosis and its correlation with autophagy has not previously been examined. Therefore, in a series of experiments, cell lysates of SK-N-SH cells were treated with GlbA in the presence and absence of the autophagy inhibitor 3-methyladenine (3-MA) and probed for poly ADP-ribose polymerase (PARP). The cleavage of PARP produces a smaller 89 kDa fragment which is indicative of late apoptosis.

[2] = target: T1, yeast 20S proteasome (Saccharomyces cerevisiae, UniProt P25043+P30656+P38624); test: cocrystallization with 20S proteasome, X-ray crystallography; format: binding; conditions: crystal structure of complex
T1 construct: each was cocrystallized with the yeast 20S proteasome; host or cells: yeast
Experimental: To elucidate the binding mode of syringolin. A and glidobactin A to the proteasome, each was cocrystallized with the yeast 20S proteasome. Crystals of the 20S proteasome were grown in hanging drops at 24° C. as described (Grail et al. 1997. Nature 386:463-471; Groll and Huber. 2005. Methods Enzymol. 398:329-336, each which is incorporated herein by reference in its entirety) and incubated for 60 min with syringolin A or glidobactin A. The protein concentration used for crystallization was 40 mg/ml in Tris-HCI (10 mM, pH 7.5) and EDTA (1 mM). The drops contained 3 μL of protein and 2 μL of the reservoir solution (30 mM magnesium acetate, 100 mM morpholino-ethane-sulphonic acid (pH 7.2) and 10% MPD), X-ray diffraction data to 2.9 Å for the yeast 20S proteasome:syringolin A and to 2.7 Å for the 20S proteasome:glidobactin A-complex were collected using synchrotron radiation with λ=1.05 Å on the BW6-beamline at DESY/Hamburg/Germany and with λ=1.0 Å on the […] at SLS/Villingen/Switzerland, respectively. Crystals were soaked in cryoprotecting buffer (30% MPD, 20 mM magnesium acetate, 100 mM morpholino-ethane-sulfonic acid pH 6.9) and frozen in a stream of liquid nitrogen gas at 90 K (Oxford Cryo Systems). X-ray intensities were evaluated by using the DENZO program package (Otwinowski and Minor. 1997. Methods Enzymol 276:307-326) and data reduction was performed with CCP4 (Potterton et al. 2003. Acta Crystallogr. D Biol. Crystallogr. 59:1131-1137). The space group belongs to P21 with cell dimensions of about a=134 Å, b=302 Å, c=144 Å and β=112° (Table 1). The anisotropy of diffraction was corrected by an overall anisotropic temperature factor by comparing observed and calculated structure amplitudes using the program CNS (Brünger et al. 1998. Acta Crystallogr. D Biol. Crystallogr. 54: 905-921, which is incorporated herein by reference in its entirety). […]

| SMILES | PARP cleavage ([1]; Example 15, single agent) | GlbA-induced PARP cleavage in presence of 3-MA ([1]; GlbA with 3-MA) | binding mode at proteasome active sites [2] | binding to the caspase-like active site [2] | PARP cleavage ([1]; 20 μM, 24 and 48 hours) |
| --- | --- | --- | --- | --- | --- |
| CCCCCCC/C=C/C=C/C(=O)N[C@H](C(=O)N[C@H]1C[C@@H](O)CCNC(=O)/C=C/[C@H](C)NC1=O)[C@@H](C)O [glidobactin A] | PARP cleavage was observed | slightly reduced this effect | same mechanism of inactivation | did not bind |  |
| CC(C)[C@H](NC(=O)N[C@H](C(=O)N[C@H]1/C=C/CCNC(=O)/C=C/[C@H](C(C)C)NC1=O)C(C)C)C(=O)O [syringolin A] |  |  | covalently binds to the hydroxy group of the active site N-terminal threonine |  | induces apoptosis-associated PARP cleavage |

— patent US8597904B2, “Pharmaceutical compositions for the treatment of conditions responsive to proteasome inhibition” (priority 2007, dated 2013)
